The source of these data is PMC12195740, “Discovery of Novel Imidazothiazole-Based Hydroxamic Acid Derivatives as Potent Indoleamine 2,3-Dioxygenase 1 and Histone Deacetylase 6 Dual Inhibitors” (Molecules, 2025).

In test [1] the target is T1, HDAC6 human recombinant enzyme (Homo sapiens, UniProt Q9UBN7).
T1 sequence (Q9UBN7 1-1215): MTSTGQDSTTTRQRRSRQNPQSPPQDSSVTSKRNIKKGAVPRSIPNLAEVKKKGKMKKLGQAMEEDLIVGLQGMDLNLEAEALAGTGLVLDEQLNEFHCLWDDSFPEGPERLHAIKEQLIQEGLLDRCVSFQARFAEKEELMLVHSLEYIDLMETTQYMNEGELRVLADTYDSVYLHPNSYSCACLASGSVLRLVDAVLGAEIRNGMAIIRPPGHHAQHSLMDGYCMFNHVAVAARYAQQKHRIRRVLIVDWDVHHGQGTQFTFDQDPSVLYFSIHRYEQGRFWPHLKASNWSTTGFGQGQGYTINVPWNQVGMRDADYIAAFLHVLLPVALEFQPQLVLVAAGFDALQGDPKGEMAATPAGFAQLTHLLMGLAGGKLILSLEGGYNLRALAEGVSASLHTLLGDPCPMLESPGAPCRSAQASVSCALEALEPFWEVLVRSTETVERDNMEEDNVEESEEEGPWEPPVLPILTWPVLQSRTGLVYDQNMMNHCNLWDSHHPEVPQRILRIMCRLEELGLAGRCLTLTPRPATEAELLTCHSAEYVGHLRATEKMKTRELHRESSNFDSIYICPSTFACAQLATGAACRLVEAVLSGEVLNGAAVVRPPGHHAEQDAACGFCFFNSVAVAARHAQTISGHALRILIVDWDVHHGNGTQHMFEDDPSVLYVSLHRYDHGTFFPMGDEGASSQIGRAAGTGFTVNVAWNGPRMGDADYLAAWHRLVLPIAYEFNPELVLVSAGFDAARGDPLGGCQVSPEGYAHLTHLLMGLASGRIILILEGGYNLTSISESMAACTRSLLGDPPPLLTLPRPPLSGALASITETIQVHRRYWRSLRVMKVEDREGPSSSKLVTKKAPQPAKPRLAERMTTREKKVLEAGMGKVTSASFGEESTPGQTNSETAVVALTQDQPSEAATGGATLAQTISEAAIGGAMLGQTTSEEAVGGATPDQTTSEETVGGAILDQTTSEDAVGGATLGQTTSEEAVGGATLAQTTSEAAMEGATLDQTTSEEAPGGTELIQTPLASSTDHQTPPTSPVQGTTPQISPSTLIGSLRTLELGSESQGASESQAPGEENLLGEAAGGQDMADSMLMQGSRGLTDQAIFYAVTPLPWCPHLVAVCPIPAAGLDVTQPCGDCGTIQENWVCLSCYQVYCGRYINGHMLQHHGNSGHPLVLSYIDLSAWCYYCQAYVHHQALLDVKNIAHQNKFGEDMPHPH
The test can be described thus: HDAC6 enzyme inhibitory activity assay. In kind it is biochemical. The method, then: Section S1. Biological assays
Section S 1.1. HDAC6 enzyme inhibitory activity assay
Preparation of Master Mix. Trichostatin A in DMSO, Fluorogenic HDAC substrate 3, and HDAC6 human recombinant enzyme were diluted to 20 μM, 200 μM, and 7 ng/uL, respectively, using HDAC Assay Buffer.BSA was dissolved in 1 mL of distilled water to make a BSA solution at a concentration of 1 mg/mL. A certain amount of Fluorogenic HDAC substrate 3, BSA and HDAC Assay Buffer were mixed well to make a master mix, and 40 μL of the master mix was added to each well of a 96-well plate. In the drug administration group, 5 μL of Trichostatin A in DMSO and HDAC6 human recombinant enzyme were added to each well. 5 μL of HDAC Assay Buffer and HDAC6 human recombinant enzyme were added to each well of the blank group, and incubated for 30 min at 37 °C. Finally, 50 μL of undiluted HDAC substrate 3, BSA and HDAC Assay Buffer were added to each well. 50 μL of 2x HDAC Developer was added to each well and incubated at room temperature for 15 min. The samples were read in an enzyme marker with an excitation wavelength in the range of 350-380 nm and an emission light in the range of 440-460 nm.
The values of fluorescence intensities were read and the inhibition rate and IC50 were calculated. […]

For test [2], the system named is Ac-histone H3 (substrate for HDACs 1, 2, and 3). The test can be described thus: Western blot of Ac-histone H3 in HCT-116 cells. In kind it is cell-based. The conditions noted are these: HCT-116, 20 μM, 24 h. The method, then:
Since HDACs regulate the acetylation status of histone and nonhistone proteins in cells, the acetylation levels of histone H3 (a known substrate for HDACs 1, 2, and 3) and α-tubulin (a known substrate for HDAC6) are frequently used as markers of cellular HDAC activity. […] HCT-116 cells were incubated with compound 10e (5−20 μM) for 24 h, and the levels of acetylation of histone H3 and α-tubulin were detected by the Western blot. […]
with 75% cold ethanol at 4 °C overnight. After that, fixed cells were washed with PBS. Then, cells were isolated by centrifugation and stained with propidium iodide (KeyGEN BioTECH, China) for 30 min. The samples were measured using flow cytometry and analyzed by Flowjo software.
Section S 1.6 Western blot assay
Total cell lysates from cultured HCT-116 cells after treatment with compound 10e as mentioned earlier were obtained by lysing the cells in ice-cold RIPA buffer with protease and phosphatase inhibitor and stored at -20°C for future use. The protein concentrations were quantified by the Bradford method (Bio-Rad) using a Multimode Varioscan instrument (Thermo Fischer Scientific). […]
The in vivo antitumor activity of compound 10e was evaluated in the mouse colon carcinoma cell line CT-26 in BALB/c mice as described previously. […]
In general terms: A western blot detects proteins with antibodies after separation by electrophoresis.

Another test has as its system SW480 cells. The test can be described thus: Cell viability (MTT) assay, SW480. The conditions noted are these: Homo sapiens, SW480, 48 h, read-out: Antiproliferative IC50, SW480.
The target in a further test is HDAC1 (Homo sapiens, UniProt Q13547). The test can be described thus: HDAC isoform selectivity assay, HDAC1. The test is classed as biochemical.

The structures appear in SMILES notation.

Chain of HDAC1 (Q13547 whole entry, species assumed, canonical isoform): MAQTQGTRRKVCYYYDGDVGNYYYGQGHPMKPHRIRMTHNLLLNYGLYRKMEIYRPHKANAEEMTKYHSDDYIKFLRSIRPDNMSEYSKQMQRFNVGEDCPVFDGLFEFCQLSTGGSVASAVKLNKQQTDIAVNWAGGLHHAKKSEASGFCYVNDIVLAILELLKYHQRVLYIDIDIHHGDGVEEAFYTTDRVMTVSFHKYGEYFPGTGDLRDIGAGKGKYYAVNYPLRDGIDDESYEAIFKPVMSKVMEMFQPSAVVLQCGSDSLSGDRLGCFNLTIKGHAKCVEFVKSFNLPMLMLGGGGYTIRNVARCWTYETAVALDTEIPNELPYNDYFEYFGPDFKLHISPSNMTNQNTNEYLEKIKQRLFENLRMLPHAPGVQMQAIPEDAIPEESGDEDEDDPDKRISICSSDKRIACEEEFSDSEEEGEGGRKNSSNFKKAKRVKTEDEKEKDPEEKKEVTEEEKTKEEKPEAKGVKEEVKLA
Method for SW480 cells: Section S 1.3 Cell viability assays
Cell Bank at the Chinese Academy of Sciences.
DMEM and FBS were obtained from Gibco-Thermo (BRL Co. Ltd., USA).
another 48 h. The cells were stained with 10 μl of MTT at incubator for approximately 4 h. The medium was discarded and replaced by 100 mL DMSO. The O.D. value was read at 570/630 nm with a spectrophotometer.

What is called IC50 is the midpoint of a concentration-inhibition curve. The inhibition is the change of the read-out against control, counted positive when it falls. For the compound `O=C(CCCCCCNc1ccc(NC(=O)c2cnc3scc(-c4ccc(Br)cc4)n23)cc1)NO` [Compound 10e, 3-(4-Bromophenyl)-N-{4-[(7-(hydroxyamino)-7-oxoheptyl)amino]phenyl}imidazo[2,1-b]thiazole-5-carboxamide], the IC50 stood at 0.0582 µM in test [1], 23.4 ± 3.86 µM in the test on SW480 cells and 1.08 µM against HDAC1. For the same compound, the “Selectivity Index (SI) = HDAC1 IC50 value/HDAC6 IC50 value” in test [1] (HDAC1/HDAC6) is given as 18.51. Besides, the inhibition at 1 µM in test [1] (read-out: HDAC6 Inhibition Rate at 1 μM) was 90.5%. In test [2], the “Ac-histone H3 levels” value is listed as “slight increase”.
